# According to ChEMBL document CHEMBL3885861, “Open TG-GATES”:
# Species on record: Rattus norvegicus
# Assay: Open TG-GATES - Regimen: Daily Repeat
# Assay type: toxicity, organism-based, Sprague-Dawley
# Set-up: regimen Daily Repeat, gender Male, age 6 weeks
# Settings: in vivo, po, 0 mg/kg, route gavage, dose level Control; for APTT / Bas / Eos / Fbg / Hb / Ht / Lym / MCH / MCHC / MCV / Mono / Neu / PT / Plat / RBC / Ret / WBC: tissue Blood; for KIDNEY_L / KIDNEY_R / KIDNEY_TOTAL: tissue Kidney; for LIVER: tissue Liver; for A/G / ALP / ALT / AST / BUN / CRE / Ca / Cl / DBIL / GLC / IP / K / LDH / Na / PL / RALB / TBIL / TC / TG / TP / gamma-GTP: tissue Plasma
structure (smiles),measurement,setting,value
C[C@H]1C(=O)O[C@@H]2CCN3CC=C(COC(=O)[C@](C)(O)[C@]1(C)O)[C@H]23 [MONOCROTALINE],TERMINAL_BW,"72 h, time 3 day",230.9 g
same,APTT,"72 h, time 3 day",21.2 s
same,Bas,"72 h, time 3 day",0%
same,Eos,"72 h, time 3 day",0.6%
same,Fbg,"72 h, time 3 day",311.8 mg/dL
same,Hb,"72 h, time 3 day",13.5 g/dL
same,Ht,"72 h, time 3 day",39.5%
same,Lym,"72 h, time 3 day",83.8%
same,MCH,"72 h, time 3 day",21.5 pg
same,MCHC,"72 h, time 3 day",34.3%
same,MCV,"72 h, time 3 day",62.6 fL
same,Mono,"72 h, time 3 day",2%
same,Neu,"72 h, time 3 day",12.4%
same,PT,"72 h, time 3 day",15.8 s
same,Plat,"72 h, time 3 day",119.6 x10_4/uL
same,RBC,"72 h, time 3 day",631.2 x10_4/ul
same,Ret,"72 h, time 3 day",6.9%
same,WBC,"72 h, time 3 day",91.2 x10_2/uL
same,KIDNEY_L,"72 h, time 3 day",1 g
same,KIDNEY_R,"72 h, time 3 day",1 g
same,KIDNEY_TOTAL,"72 h, time 3 day",2.1 g
same,LIVER,"72 h, time 3 day",11 g
same,A/G,"72 h, time 3 day",1.2
same,ALP,"72 h, time 3 day",1771.6 IU/L
same,ALT,"72 h, time 3 day",40.2 IU/L
same,AST,"72 h, time 3 day",70 IU/L
same,BUN,"72 h, time 3 day",18.2 mg/dL
same,CRE,"72 h, time 3 day",0.2 mg/dL
same,Ca,"72 h, time 3 day",10.6 mg/dL
same,Cl,"72 h, time 3 day",105.6 meq/L
same,DBIL,"72 h, time 3 day",0.004 mg/dL
same,GLC,"72 h, time 3 day",191.4 mg/dL
same,IP,"72 h, time 3 day",6.9 mg/dL
same,K,"72 h, time 3 day",4.6 meq/L
same,LDH,"72 h, time 3 day",222.4 IU/L
same,Na,"72 h, time 3 day",142.2 meq/L
same,PL,"72 h, time 3 day",164 mg/dL
same,RALB,"72 h, time 3 day",3.1 g/dL
same,TBIL,"72 h, time 3 day",0.008 mg/dL
same,TC,"72 h, time 3 day",83.8 mg/dL
same,TG,"72 h, time 3 day",119 mg/dL
same,TP,"72 h, time 3 day",5.6 g/dL
same,gamma-GTP,"72 h, time 3 day",1.2 IU/L
same,TERMINAL_BW,"[…], time 7 day",267 g
same,TERMINAL_BW,"[…], time 14 day",315.5 g
same,TERMINAL_BW,"[…], time 28 day",368.8 g
same,APTT,"[…], time 7 day",21 s
same,Bas,"[…], time 7 day",0%
same,Eos,"[…], time 7 day",0.8%
same,Fbg,"[…], time 7 day",309.8 mg/dL
same,Hb,"[…], time 7 day",13.3 g/dL
same,Ht,"[…], time 7 day",38.4%
same,Lym,"[…], time 7 day",80.6%
same,MCH,"[…], time 7 day",20.8 pg
same,MCHC,"[…], time 7 day",34.7%
same,MCV,"[…], time 7 day",60.2 fL
same,Mono,"[…], time 7 day",2.6%
same,Neu,"[…], time 7 day",15.2%
same,PT,"[…], time 7 day",16.6 s
same,Plat,"[…], time 7 day",111.7 x10_4/uL
same,RBC,"[…], time 7 day",638.2 x10_4/ul
same,Ret,"[…], time 7 day",6.1%
same,WBC,"[…], time 7 day",108.8 x10_2/uL
same,APTT,"[…], time 14 day",20.5 s
same,Bas,"[…], time 14 day",0%
same,Eos,"[…], time 14 day",1%
same,Fbg,"[…], time 14 day",323.2 mg/dL
same,Hb,"[…], time 14 day",14.1 g/dL
same,Ht,"[…], time 14 day",39.6%
same,Lym,"[…], time 14 day",78.4%
same,MCH,"[…], time 14 day",20.7 pg
same,MCHC,"[…], time 14 day",35.6%
same,MCV,"[…], time 14 day",58.1 fL
same,Mono,"[…], time 14 day",2.8%
same,Neu,"[…], time 14 day",16.8%
same,PT,"[…], time 14 day",16.7 s
same,Plat,"[…], time 14 day",104.7 x10_4/uL
same,RBC,"[…], time 14 day",681.6 x10_4/ul
same,Ret,"[…], time 14 day",4.5%
same,WBC,"[…], time 14 day",124 x10_2/uL
same,APTT,"[…], time 28 day",22.4 s
same,Bas,"[…], time 28 day",0%
same,Eos,"[…], time 28 day",1.2%
same,Fbg,"[…], time 28 day",314.2 mg/dL
same,Hb,"[…], time 28 day",14.7 g/dL
same,Ht,"[…], time 28 day",40.6%
same,Lym,"[…], time 28 day",82.2%
same,MCH,"[…], time 28 day",19.7 pg
same,MCHC,"[…], time 28 day",36.1%
same,MCV,"[…], time 28 day",54.6 fL
same,Mono,"[…], time 28 day",2%
same,Neu,"[…], time 28 day",13.6%
same,PT,"[…], time 28 day",16 s
same,Plat,"[…], time 28 day",102 x10_4/uL
same,RBC,"[…], time 28 day",744.4 x10_4/ul
same,Ret,"[…], time 28 day",2.6%
same,WBC,"[…], time 28 day",110.5 x10_2/uL
same,KIDNEY_L,"[…], time 7 day",1.1 g
same,KIDNEY_R,"[…], time 7 day",1.1 g
same,KIDNEY_TOTAL,"[…], time 7 day",2.2 g
same,KIDNEY_L,"[…], time 14 day",1.3 g
same,KIDNEY_R,"[…], time 14 day",1.3 g
same,KIDNEY_TOTAL,"[…], time 14 day",2.5 g
same,KIDNEY_L,"[…], time 28 day",1.3 g
same,KIDNEY_R,"[…], time 28 day",1.4 g
same,KIDNEY_TOTAL,"[…], time 28 day",2.7 g
same,LIVER,"[…], time 7 day",12.7 g
same,LIVER,"[…], time 14 day",13.3 g
same,LIVER,"[…], time 28 day",14.7 g
same,A/G,"[…], time 7 day",1.2
same,ALP,"[…], time 7 day",1469.6 IU/L
same,ALT,"[…], time 7 day",37.8 IU/L
same,AST,"[…], time 7 day",65 IU/L
same,BUN,"[…], time 7 day",18 mg/dL
same,CRE,"[…], time 7 day",0.2 mg/dL
same,Ca,"[…], time 7 day",10.7 mg/dL
same,Cl,"[…], time 7 day",105.4 meq/L
same,DBIL,"[…], time 7 day",0 mg/dL
same,GLC,"[…], time 7 day",187 mg/dL
same,IP,"[…], time 7 day",7 mg/dL
same,K,"[…], time 7 day",4.3 meq/L
same,LDH,"[…], time 7 day",182.2 IU/L
same,Na,"[…], time 7 day",142.4 meq/L
same,PL,"[…], time 7 day",156.2 mg/dL
same,RALB,"[…], time 7 day",3.1 g/dL
same,TBIL,"[…], time 7 day",0.002 mg/dL
same,TC,"[…], time 7 day",79.6 mg/dL
same,TG,"[…], time 7 day",111 mg/dL
same,TP,"[…], time 7 day",5.6 g/dL
same,gamma-GTP,"[…], time 7 day",1 IU/L
same,A/G,"[…], time 14 day",1.2
same,ALP,"[…], time 14 day",1565.6 IU/L
same,ALT,"[…], time 14 day",36 IU/L
same,AST,"[…], time 14 day",68.6 IU/L
same,BUN,"[…], time 14 day",19.4 mg/dL
same,CRE,"[…], time 14 day",0.2 mg/dL
same,Ca,"[…], time 14 day",10.8 mg/dL
same,Cl,"[…], time 14 day",105.6 meq/L
same,DBIL,"[…], time 14 day",0.002 mg/dL
same,GLC,"[…], time 14 day",194 mg/dL
same,IP,"[…], time 14 day",6.6 mg/dL
same,K,"[…], time 14 day",4.3 meq/L
same,LDH,"[…], time 14 day",217 IU/L
same,Na,"[…], time 14 day",142.4 meq/L
same,PL,"[…], time 14 day",144 mg/dL
same,RALB,"[…], time 14 day",3.2 g/dL
same,TBIL,"[…], time 14 day",0 mg/dL
same,TC,"[…], time 14 day",66.6 mg/dL
same,TG,"[…], time 14 day",148 mg/dL
same,TP,"[…], time 14 day",5.9 g/dL
same,gamma-GTP,"[…], time 14 day",1.6 IU/L
